The source of these data is US11492385B2, “Long-acting co-agonists of the glucagon and GLP-1 receptors” (Merck Sharp & Dohme Corp., priority 2015, dated 2022).

Starred links: 1 amine or outer side, 2 acyl side, 3 side chain; linkers in the order of their positions; H or OH if unused. Non-standard residues stand in square brackets, D forms with d. Residues, ends and D or L forms follow the SMILES beside them. Groups on a side chain read outwards from the residue. *: point of attachment. Phe(4-CH2NH2) = NCc1ccc(C[C@H](N)C(=O)O)cc1; C18 diacid = O=C(O)CCCCCCCCCCCCCCCCC(=O)*; C16 diacid = O=C(O)CCCCCCCCCCCCCCC(=O)*; γGlu = O=C(O)[C@H](CCC(=O)[*:2])N[*:1]; Met(O2) = CS(=O)(=O)CC[C@H](N)C(=O)O; AEEA = NCCOCCOCC(=O)O; Aib = CC(C)(N)C(=O)O

By EC50 is commonly meant the midpoint of the concentration-response curve.

One assay deals with T1, human GLP1R (Homo sapiens, UniProt P43220).
T1 construct: expressed in transfected cells; kept under Blasticidin and Hygromycin selection
The assay can be described thus: cAMP activity assay, cells expressing human GLP1R. Conditions: cAMP production, assay buffer with or without 20% human serum (not stated which). It is filed as cell-based. On the procedure:
(§1) Activity of the peptides at the Glucagon receptor (GCGR) and GLP-1 receptor (GLP1R) was measured in a cAMP activity assay. Peptides were dissolved in 100% DMSO and serially diluted to generate 10 point titrations. The peptide solutions were then transferred into 384-well assay plates (150 nL/well). […] Production of cAMP was determined using […] kits (DiscoverX) following manufacturer protocol. The plates were incubated for overnight at room temperature in the dark. Luminescence was measured using an EnVision Multilabel plate reader (Perkin Elmer). Native GLP-1 and Glucagon (Bachem) are used as control peptides. EC50 values were calculated using uses a 4 parameter logistic fit based on the Levenberg-Marquardt algorithm.
(cAMP levels reflect the balance of adenylyl cyclase and phosphodiesterase activity.)

The next assay deals with T2, human GCGR (Homo sapiens, UniProt P47871).
T2 construct: expressed in transfected cells; kept under Blasticidin and Hygromycin selection
The experiment in a line: cAMP activity assay, cells expressing human GCGR. It is filed as cell-based. Conditions: for EC50: cAMP production, cells expressing human GCGR, assay buffer with or without 20% human serum (not stated which), read-out: GCGR EC50 human; for hGCGR/hGLP1R (hTone): ratio of human GCGR EC50 to human GLP1R EC50. On the procedure:
as §1

T1 sequence (P43220 24-463): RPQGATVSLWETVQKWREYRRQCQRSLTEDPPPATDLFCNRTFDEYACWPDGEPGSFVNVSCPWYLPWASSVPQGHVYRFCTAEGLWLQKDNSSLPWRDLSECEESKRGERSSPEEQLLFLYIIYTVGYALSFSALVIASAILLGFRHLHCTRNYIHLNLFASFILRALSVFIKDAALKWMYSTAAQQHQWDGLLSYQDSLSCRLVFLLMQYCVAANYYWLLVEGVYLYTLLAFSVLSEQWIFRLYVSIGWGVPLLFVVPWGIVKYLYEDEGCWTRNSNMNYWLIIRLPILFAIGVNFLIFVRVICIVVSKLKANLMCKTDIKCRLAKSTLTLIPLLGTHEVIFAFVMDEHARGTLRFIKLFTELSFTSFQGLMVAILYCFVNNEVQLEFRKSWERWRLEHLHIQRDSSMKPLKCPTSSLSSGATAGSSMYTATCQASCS
T2 sequence (P47871 26-477): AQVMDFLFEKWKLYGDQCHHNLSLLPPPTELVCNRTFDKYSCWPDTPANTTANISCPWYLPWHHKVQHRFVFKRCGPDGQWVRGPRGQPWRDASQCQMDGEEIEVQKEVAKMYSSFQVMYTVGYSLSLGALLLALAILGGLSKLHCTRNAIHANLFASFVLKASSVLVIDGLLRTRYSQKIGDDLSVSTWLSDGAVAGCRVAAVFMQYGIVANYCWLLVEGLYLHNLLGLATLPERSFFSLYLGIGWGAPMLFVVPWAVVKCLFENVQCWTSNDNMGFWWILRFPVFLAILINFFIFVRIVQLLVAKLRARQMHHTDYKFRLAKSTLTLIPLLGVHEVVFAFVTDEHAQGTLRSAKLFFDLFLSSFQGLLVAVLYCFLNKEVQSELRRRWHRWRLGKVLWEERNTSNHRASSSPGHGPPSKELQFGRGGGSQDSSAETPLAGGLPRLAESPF

Turning to `CC(C)C[C@H](NC(=O)[C@H](Cc1ccc(O)cc1)NC(=O)[C@H](CCCCN)NC(=O)[C@H](CO)NC(=O)[C@H](Cc1ccc(O)cc1)NC(=O)[C@H](CC(=O)O)NC(=O)[C@H](CO)NC(=O)[C@@H](NC(=O)[C@H](Cc1ccccc1)NC(=O)[C@@H](NC(=O)CNC(=O)[C@H](CCC(N)=O)NC(=O)[C@@H](CO)NC(=O)[C@@H](N)Cc1c[nH]cn1)[C@@H](C)O)[C@@H](C)O)C(=O)N[C@@H](CC(=O)O)C(=O)N[C@@H](C)C(=O)N[C@@H](CCCNC(=N)N)C(=O)N[C@@H](C)C(=O)N[C@@H](C)C(=O)N[C@@H](Cc1ccc(CNC(=O)COCCOCCNC(=O)COCCOCCNC(=O)CC[C@H](NC(=O)CCCCCCCCCCCCCCC(=O)O)C(=O)O)cc1)C(=O)N[C@@H](CC(=O)O)C(=O)N[C@@H](Cc1ccccc1)C(=O)N[C@H](C(=O)N[C@@H](CCC(N)=O)C(=O)N[C@@H](Cc1c[nH]c2ccccc12)C(=O)N[C@@H](CC(C)C)C(=O)N[C@@H](CC(C)C)C(=O)N[C@@H](CC(=O)O)C(=O)N[C@H](C(N)=O)[C@@H](C)O)C(C)C` [compound 22] (H-H[dS]QGTFTSDYSKYLDARAA[Phe(4-CH2NH2)]([AEEA-AEEA-γGlu-C16 diacid])DFVQWLLDT-NH2), the response at human GLP1R was half-maximal at 0.29 nM (EC50). Also, at human GCGR, the EC50 came to 0.02 nM and the “hGCGR/hGLP1R (hTone)” value is given as 0.08.

Turning to `CC(C)C[C@H](NC(=O)[C@H](Cc1ccc(O)cc1)NC(=O)[C@H](CCCCN)NC(=O)[C@H](CO)NC(=O)[C@H](Cc1ccc(O)cc1)NC(=O)[C@H](CC(=O)O)NC(=O)[C@H](CO)NC(=O)[C@@H](NC(=O)[C@H](Cc1ccccc1)NC(=O)[C@@H](NC(=O)CNC(=O)[C@H](CCC(N)=O)NC(=O)C(C)(C)NC(=O)[C@@H](N)Cc1c[nH]cn1)[C@@H](C)O)[C@@H](C)O)C(=O)N[C@@H](CC(=O)O)C(=O)N[C@@H](C)C(=O)N[C@@H](CCCCN)C(=O)N[C@@H](C)C(=O)N[C@@H](C)C(=O)N[C@@H](CCCCNC(=O)COCCOCCNC(=O)COCCOCCNC(=O)CC[C@H](NC(=O)CCCCCCCCCCCCCCCCC(=O)O)C(=O)O)C(=O)N[C@@H](CC(=O)O)C(=O)N[C@@H](Cc1ccccc1)C(=O)N[C@H](C(=O)N[C@@H](CCC(N)=O)C(=O)N[C@@H](Cc1c[nH]c2ccccc12)C(=O)N[C@@H](CC(C)C)C(=O)N[C@@H](CCS(C)(=O)=O)C(=O)N[C@@H](CC(=O)O)C(=O)N[C@H](C(N)=O)[C@@H](C)O)C(C)C` [compound 70] (H-H[Aib]QGTFTSDYSKYLDAKAAK([AEEA-AEEA-γGlu-C18 diacid])DFVQWL[Met(O2)]DT-NH2; N-terminus assumed), the EC50 on human GLP1R is 0.5 nM. At human GCGR, the concentration giving a half-maximal response (EC50) came to 1.1 nM and the “hGCGR/hGLP1R (hTone)” value is 2.3.

As for `CC(C)C[C@H](NC(=O)[C@H](Cc1ccc(O)cc1)NC(=O)[C@H](CCCCN)NC(=O)[C@H](CO)NC(=O)[C@H](CCCCNC(=O)COCCOCCNC(=O)COCCOCCNC(=O)CC[C@H](NC(=O)CCCCCCCCCCCCCCCCC(=O)O)C(=O)O)NC(=O)[C@H](CC(=O)O)NC(=O)[C@H](CO)NC(=O)[C@@H](NC(=O)[C@H](Cc1ccccc1)NC(=O)[C@@H](NC(=O)CNC(=O)[C@H](CCC(N)=O)NC(=O)[C@@H](CO)NC(=O)[C@@H](N)Cc1c[nH]cn1)[C@@H](C)O)[C@@H](C)O)C(=O)N[C@@H](CC(=O)O)C(=O)N[C@@H](C)C(=O)N[C@@H](CCCNC(=N)N)C(=O)N[C@@H](C)C(=O)N[C@@H](C)C(=O)N[C@@H](CCC(N)=O)C(=O)N[C@@H](CC(=O)O)C(=O)N[C@@H](Cc1ccccc1)C(=O)N[C@H](C(=O)N[C@@H](CCC(N)=O)C(=O)N[C@@H](Cc1c[nH]c2ccccc12)C(=O)N[C@@H](CC(C)C)C(=O)N[C@@H](CC(C)C)C(=O)N[C@@H](CC(=O)O)C(=O)N[C@H](C(N)=O)[C@@H](C)O)C(C)C` [compound 6] (H-H[dS]QGTFTSDK([AEEA-AEEA-γGlu-C18 diacid])SKYLDARAAQDFVQWLLDT-NH2), the EC50 on human GLP1R was 1.37 nM. Moreover, at human GCGR, the EC50 was found to be 1.7 nM and the “hGCGR/hGLP1R (hTone)” value stood at 1.24.
